For the test, the target named is T1, Lp-PLA2 in human plasma (Homo sapiens, UniProt Q13093).
T1 construct: from tissue; host or cells: pooled human plasma
T1 sequence (Q13093 22-441): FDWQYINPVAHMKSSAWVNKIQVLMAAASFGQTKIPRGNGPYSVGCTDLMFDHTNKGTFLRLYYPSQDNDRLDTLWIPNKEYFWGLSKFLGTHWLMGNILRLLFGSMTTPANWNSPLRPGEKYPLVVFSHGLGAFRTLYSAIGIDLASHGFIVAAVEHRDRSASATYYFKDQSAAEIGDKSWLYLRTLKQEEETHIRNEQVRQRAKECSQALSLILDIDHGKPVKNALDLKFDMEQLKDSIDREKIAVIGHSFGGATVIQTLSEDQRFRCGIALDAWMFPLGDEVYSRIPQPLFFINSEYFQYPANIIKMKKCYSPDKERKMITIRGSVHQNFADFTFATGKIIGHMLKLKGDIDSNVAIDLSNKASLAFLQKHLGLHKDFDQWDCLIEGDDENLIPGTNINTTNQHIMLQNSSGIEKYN
Kind of test: (3a) Lp-PLA2 human plasma Thio-PAF assay. The format is biochemical. The note with it: (3a) Thio-PAF assay, pooled human plasma; Examples 1-265 and 413-430 were tested here; read-out: pIC50 in the Lp-PLA2 human plasma assay (converted). The source says: (3) Lipoprotein-Associated Phospholipase A2 (Lp-PLA2) Human Plasma Assay
The human plasma assay utilizes a thioester analog of PAF (phosphatidylcholine), where hydrolysis yields to the formation of a phospholipid containing a free thiol group. The amount of thiol is quantitated continuously by reacting with CPM (7-diethylamino-3-(4′-maleimidylphenyl)-4-methylcoumarin), a maleimide which increases in fluoresence after Michael addition of thiols. This assay may detect the activity of Lp-PLA2 in human plasma, as determined by specific inhibition by Lp-PLA2 inhibitors.
The thio-PAF assay was run as a quenched 15 μL assay. Compounds source plate was prepared by making 1:3 (by volume) serial dilution of the compounds into pure DMSO on 384-well microplate. 0.01 μL of compounds on compound source plate were transferred to 384 well Greiner 784076 (black) low-volume plates by ECHO liquid dispenser. 8 μL pooled human plasma, which was previously aliquoted and frozen, was added. Plates were centrifuged for 10 sec at 500 rpm. After 30 minutes preincubation, 2 μL of substrate solution comprising 2.5 mM 2-thio-PAF [from ethanol stock], 32 μM CPM [from a DMSO stock] and 3.2 mM NEM (N-ethylmaleimide) [made fresh daily in DMSO] in assay buffer of 50 mM HEPES, pH 7.4, 150 mM NaCl, 1 mM CHAPS was added to 384 well Greiner 784076 (black) low-volume plates by BRAVO liquid handling station. After 2 mins, reaction was quenched with 5 μL of 5% aqueous trifluoroacetic acid (TFA). Plates were covered to protect from light and incubated for 40 min at room temperature. Plates were read at ex: 380/em: 485 using Envision microplate reader. PIC50 data, curve and QC analysis were conducted by using XLFit module in Excel.
Regarding `O=c1nc(OCc2cc(F)cc(F)c2)cc2n1C[C@@H]1CCCN21` [Example E215, (S)-3-((3,5-difluorobenzyl)oxy)-7,8,8a,9-tetrahydropyrrolo[1′,2′:3,4]imidazo[1,2-c]pyrimidin-1(6H)-one], the IC50 was no more than 10 µM.
To `O=c1nc(OCCc2cccc(F)c2)cc2n1C[C@H]1COCCN21` [Example E248, (S)-7-(3-fluorophenethoxy)-3,4,11,11a-tetrahydropyrimido[6′,1′:2,3]imidazo[5,1-c][1,4] oxazin-9(1H)-one] belongs no more than 10 µM.
To `O=c1nc(NCc2ccc(F)cc2F)cc2n1C[C@H]1CCCN21` [Example E216, (R)-3-((2,4-difluorobenzyl)amino)-7,8,8a,9-tetrahydropyrrolo[1,2′:3,4]imidazo[1,2-c] pyrimidin-1(6H)-one] belongs no more than 10 µM; to `O=c1nc(OCc2cccc(F)c2F)cc2n1CC1OCCN21` (stereo not drawn) [Example E187, 6-((2,3-Difluorobenzyl)oxy)-10,10a-dihydro-2H-oxazolo[3′,2′:3,4]imidazo[1,2-c]pyrimidin-8(3H)-one], no more than 10 µM; to `O=c1nc(OCc2cc(F)c(F)cc2F)cc2n1C[C@@H]1COCCN21` [Example E219, (R)-7-((2,4,5-trifluorobenzyl)oxy)-3,4,11,11a-tetrahydropyrimido[6′,1′:2,3]imidazo[5,1-c] [1,4]oxazin-9(1H)-one], no more than 10 µM.
Consider `Cn1cc(Oc2c(F)cc(COc3cc4n(c(=O)n3)CC3OCCCN43)cc2F)cn1` (stereo not drawn) [Example E200, 7-((3,5-Difluoro-4-((1-methyl-1H-pyrazol-4-yl)oxy)benzyl)oxy)-3,4,11,11a tetrahydropyrimido[6′,1′:2,3]imidazo[5,1-b][1,3]oxazin-9(2H)-one], for which the IC50 was no more than 10 µM.
To `O=c1nc(OCc2ccc(F)cc2F)cc2n1C[C@H]1CCOCN21` [Example E177, (R)-3-((2,4-difluorobenzyl)oxy)-8,9,9a,10-tetrahydropyrimido[6′,1′:2,3]imidazo[1,5-c][1,3] oxazin-1(6H)-one] belongs no more than 10 µM; to `CCCCN1CC(Oc2c(F)cc(COc3cc4n(c(=O)n3)C[C@@H]3CCCN43)cc2F)C1` [Example E207, (S)-3-((4-((1-butylazetidin-3-yl)oxy)-3,5-difluorobenzyl)oxy)-7,8,8a,9-tetrahydropyrrolo[1′,2′:3,4]imidazo[1,2-c]pyrimidin-1(6H)-one], no more than 10 µM; to `O=c1nc(OCc2cc(F)cc(F)c2)cc2n1C[C@@H]1CCOCN21` [Example E182, (S)-3-((3,5-difluorobenzyl)oxy)-8,9,9a,10-tetrahydropyrimido[6′,1′:2,3]imidazo[1,5-c][1,3] oxazin-1(6H)-one], no more than 10 µM.
As for `O=c1nc(OCc2ccc(F)cc2F)cc2n1C[C@H]1COCN21` [Example E168, (S)-6-((2,4-difluorobenzyl)oxy)-10,10a-dihydro-1H-oxazolo[3′,4′:3,4]imidazo[1,2-c] pyrimidin-8(3H)-one], the figure is no more than 10 µM; as for `O=c1nc(OCc2ccc(F)cc2F)cc2n1C[C@@H]1COCN21` [Example E174, (R)-6-((2,4-difluorobenzyl)oxy)-10,10a-dihydro-1H-oxazolo[3′,4′:3,4]imidazo[1,2-c]pyrimidin-8(3H)-one], no more than 10 µM; as for `O=c1nc(OCc2cc(F)c(OC3(CCF)CC3)c(F)c2)cc2n1C[C@@H]1COCCN21` [Example E258, (R)-7-((3,5-difluoro-4-(1-(2-fluoroethyl)cyclopropoxy)benzyl)oxy)-3,4,11,11a-tetrahydropyrimido[6′,1′:2,3]imidazo[5,1-c][1,4]oxazin-9(1H)-one], no more than 10 µM.
For the compound `O=c1nc(OCc2cc(F)c(OC3CCC(F)(F)CC3)c(F)c2)cc2n1C[C@@H]1CCCN21` [Example E206, (S)-3-((4-((4,4-difluorocyclohexyl)oxy)-3,5-difluorobenzyl)oxy)-7,8,8a,9-tetrahydropyrrolo[1′,2′:3,4]imidazo[1,2-c]pyrimidin-1(6H)-one], the IC50 was no more than 10 µM.
Take `O=c1nc(OCc2cc(F)c(F)cc2F)cc2n1C[C@@H]1CCOCN21` [Example E181, (S)-3-((2,4,5-trifluorobenzyl)oxy)-8,9,9a,10-tetrahydropyrimido[6′,1′:2,3]imidazo[1,5-c][1,3]oxazin-1(6H)-one]: the IC50 was no more than 10 µM.
To `N#Cc1ccc(CCOc2cc3n(c(=O)n2)C[C@H]2COCCN32)cc1` [Example E255, (S)-4-(2-((9-oxo-1,3,4,9,11,11a-hexahydropyrimido[6′,1′:2,3]imidazo[5,1-c][1,4]oxazin-7-yl)oxy)ethyl)benzonitrile] belongs no more than 10 µM; to `O=c1nc(OCc2cc(F)cc(F)c2)cc2n1C[C@@H]1COCN21` [Example E176, (R)-6-((3,5-difluorobenzyl)oxy)-10,10a-dihydro-1H-oxazolo[3′,4′:3,4]imidazo[1,2-c] pyrimidin-8(3H)-one], no more than 10 µM; to `O=c1nc(OCc2cccc(F)c2F)cc2n1C[C@@H]1COCN21` [Example E172, (R)-6-((2,3-difluorobenzyl)oxy)-10,10a-dihydro-1H-oxazolo[3′,4′:3,4]imidazo[1,2-c] pyrimidin-8(3H)-one], no more than 10 µM.
As for `O=c1nc(OCc2cc(F)c(OC3(CCF)CC3)c(F)c2)cc2n1C[C@H]1COCCN21` [Example E262, (S)-7-((3,5-difluoro-4-(1-(2-fluoroethyl)cyclopropoxy)benzyl)oxy)-3,4,11,11a-tetrahydropyrimido[6′,1′:2,3]imidazo[5,1-c][1,4]oxazin-9(1H)-one], the figure is no more than 10 µM; as for `N#Cc1ccc(CCOc2cc3n(c(=O)n2)C[C@H]2COCN32)cc1` [Example E191, (S)-4-(2-((8-oxo-3,8,10,10a-tetrahydro-1H-oxazolo[3′,4′:3,4]imidazo[1,2-c]pyrimidin-6-yl)oxy)ethyl)benzonitrile], no more than 10 µM.
To `O=c1nc(OCc2cccc(F)c2F)cc2n1C[C@@H]1CCCN21` [Example E212, (S)-3-((2,3-difluorobenzyl)oxy)-7,8,8a,9-tetrahydropyrrolo[1′,2′:3,4]imidazo[1,2-c]pyrimidin-1(6H)-one] belongs no more than 10 µM; to `O=c1nc(OCc2cc(F)c(OC3(CCF)CC3)c(F)c2)cc2n1C[C@H]1CCOCN21` [Example E195, (R)-3-((3,5-difluoro-4-(1-(2-fluoroethyl)cyclopropoxy)benzyl)oxy)-8,9,9a,10-tetrahydropyrimido[6′,1′:2,3]imidazo[1,5-c][1,3]oxazin-1(6H)-one], no more than 10 µM.
Turning to `O=c1nc(OCc2cccc(F)c2F)cc2n1C[C@H]1COCN21` [Example E169, (S)-6-((2,3-difluorobenzyl)oxy)-10,10a-dihydro-1H-oxazolo[3′,4′:3,4]imidazo[1,2-c]pyrimidin-8(3H)-one], the IC50 was no more than 10 µM.
As for `O=c1nc(OCc2cc(F)c(F)cc2F)cc2n1C[C@H]1CCCCN21` [Example E225, (R)-3-((2,4,5-trifluorobenzyl)oxy)-6,7,8,9,9a,10-hexahydro-1H-pyrido[1′,2′:3,4]imidazo[1,2-c]pyrimidin-1-one], the figure is no more than 10 µM.
As for `O=c1nc(OCc2ccc(F)cc2F)cc2n1C[C@@H]1CCOCN21` [Example E180, (S)-3-((2,4-difluorobenzyl)oxy)-8,9,9a,10-tetrahydropyrimido[6′,1′:2,3]imidazo[1,5-c][1,3]oxazin-1(6H)-one], the figure is no more than 10 µM; as for `O=c1nc(CCc2cccc(F)c2)cc2n1C[C@H]1COCCN21` [Example E257, (S)-7-(3-fluorophenethyl)-3,4,11,11a-tetrahydropyrimido[6′,1′:2,3]imidazo[5,1-c][1,4] oxazin-9(1H)-one], no more than 10 µM.
To `O=c1nc(OCc2cccc(F)c2F)cc2n1C[C@@H]1COCCN21` [Example E221, (R)-7-((2,3-difluorobenzyl)oxy)-3,4,11,11a-tetrahydropyrimido[6′,1′:2,3]imidazo[5,1-c][1,4]oxazin-9(1H)-one] belongs no more than 0.1 µM; to `O=c1nc(OCc2cc(F)c(F)cc2F)cc2n1C[C@@H]1COCN21` [Example E175, (R)-6-((2,4,5-trifluorobenzyl)oxy)-10,10a-dihydro-1H-oxazolo[3′,4′:3,4]imidazo[1,2-c] pyrimidin-8(3H)-one], no more than 10 µM.
